# Measurements published in BindingDB's records for doi:10.1021/cb400200h (University of Oxford, 2013).
# Molecular target: Peptidoglycan D,D-transpeptidase FtsI (Pseudomonas aeruginosa (strain PA7), UniProt A6VB91)
# Assay: IC50 Assay
# Conditions: pH 7.2; 25 °C
# Procedure: An appropriate amount of enzyme (4uM) was pre-incubated with the (5R)- or 5(S)-penicilloic acid in the assay buffer (50mM HEPES-NaOH buffer (pH 7.2) supplemented with 0.01% Triton-100) at room temperature for 10 min. Nitrocefin (100uM) was added to initiate the assay. The IC50 values were determined using the software package Graph Prism 5.01.
# Peptidoglycan D,D-transpeptidase FtsI, sequence (A6VB91 whole entry): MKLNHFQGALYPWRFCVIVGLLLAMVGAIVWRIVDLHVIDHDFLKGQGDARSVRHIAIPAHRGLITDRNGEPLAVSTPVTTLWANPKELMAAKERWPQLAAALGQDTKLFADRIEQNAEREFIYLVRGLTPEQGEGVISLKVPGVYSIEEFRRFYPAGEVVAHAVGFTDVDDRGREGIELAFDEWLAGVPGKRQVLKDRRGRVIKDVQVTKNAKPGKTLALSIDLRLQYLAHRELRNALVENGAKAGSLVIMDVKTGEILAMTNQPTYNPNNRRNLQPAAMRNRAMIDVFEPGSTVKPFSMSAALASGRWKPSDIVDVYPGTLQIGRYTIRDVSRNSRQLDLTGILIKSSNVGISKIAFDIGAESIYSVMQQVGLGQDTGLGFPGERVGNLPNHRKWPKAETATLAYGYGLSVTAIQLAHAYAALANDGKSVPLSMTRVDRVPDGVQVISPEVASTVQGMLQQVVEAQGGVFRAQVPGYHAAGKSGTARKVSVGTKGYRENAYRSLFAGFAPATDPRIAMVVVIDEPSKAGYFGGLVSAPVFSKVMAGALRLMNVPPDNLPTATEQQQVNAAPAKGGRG
row,SMILES,IC50
1,CCN1CCN(C(=O)N[C@@H](C(=O)N[C@@H]2C(=O)N3[C@@H]2SC(C)(C)[C@@H]3C(=O)O)c2ccccc2)C(=O)C1=O,0.166 µM
2,CCN1CCN(C(=O)N[C@@H](C(=O)N[C@H](C(=O)O)[C@@H]2N[C@@H](C(=O)O)C(C)(C)S2)C2C=CC=CC2)C(=O)C1=O (stereo partly drawn) [(5R)-PA],196 µM
3,CCN1CCN(C(=O)N[C@@H](C(=O)N[C@H](C(=O)O)[C@H]2N[C@@H](C(=O)O)C(C)(C)S2)C2C=CC=CC2)C(=O)C1=O (stereo partly drawn) [(5S)-PA],126 µM
